# Measured values reported in US10131652B2, “Pyrimidinyloxy benzene derivatives as herbicides” (E. I. DU PONT DE NEMOURS AND COMPANY, priority 2014, dated 2018).
# Key:
# Type in all cases: in vivo
# [1] = test system: ragweed (common ragweed, Ambrosia elatior); assay: Test B pre-/postemergence plant response
# Source text: (§1) Seeds of plant species selected from bamyardgrass (Echinochloa crus-galli), kochia (Kochia scoparia), ragweed (common ragweed, Ambrosia elatior), Italian ryegrass (Lolium multiflorum), large (Lg) crabgrass (Digitaria sanguinalis), giant foxtail (Setaria faberii), momingglory (Ipomoea spp.), pigweed (Amaranthus retroflexus), velvetleaf (Abutilon theophrasti), wheat (Triticum aestivum), and corn (Zea mays) were planted into a blend of loam soil and sand and treated preemergence with a directed soil spray using test chemicals formulated in a non-phytotoxic solvent mixture which included a surfactant. At the same time, plants selected from these crop and weed species and also blackgrass (Alopecurus myosuroides), and galium (catchweed bedstraw, Galium aparine) were planted in pots containing the same blend of loam soil and sand and treated with postemergence applications of test chemicals formulated in the same manner. Plants ranged in height from 2 to 10 cm and were in the one- to two-leaf stage for the postemergence treatment. Treated plants and untreated controls were maintained in a greenhouse for approximately 10 days, after which time all treated plants were compared to untreated controls and visually evaluated for injury. Plant response ratings, summarized in Table B, are based on a 0 to 100 scale where 0 is no effect and 100 is complete control. A dash (-) response means no test result.
# [2] = test system: pigweed (Amaranthus retroflexus); assay: Test B pre-/postemergence plant response
# Source text: as §1
# kochia (Kochia scoparia) = assay: Test B pre-/postemergence plant response
# Source text: as §1
# [3] = test system: Italian ryegrass (Lolium multiflorum); assay: Test B pre-/postemergence plant response
# Source text: as §1
# corn (Zea mays) = assay: Test B pre-/postemergence plant response
# Source text: as §1
# [4] = test system: wheat (Triticum aestivum); assay: Test B pre-/postemergence plant response
# Source text: as §1
# [5] = test system: barnyardgrass (Echinochloa crus-galli); assay: Test B pre-/postemergence plant response
# Source text: as §1
# [6] = test system: giant foxtail (Setaria faberii); assay: Test B pre-/postemergence plant response
# Source text: as §1
# rice (Oryza sativa) = assay: Test C flooded paddy test plant response; details: Flood, 250 g ai/ha; scale of 0 to 100 where 0 is no effect and 100 is complete control; 13 to 15 days
# Procedure, shortened: (§2)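 Two-leaf stage → flood to 3 cm → compound into water → hold depth, greenhouse 13–15 d → visual score vs controls (0 none, 100 complete control).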
# [7] = test system: ducksalad (Heteranthera limosa); assay: Test C flooded paddy test plant response; details: Flood, 250 g ai/ha; scale of 0 to 100 where 0 is no effect and 100 is complete control; 13 to 15 days
# Procedure, shortened: as §2
# [8] = test system: barnyardgrass (Echinochloa crus-galli); assay: Test C flooded paddy test plant response; details: Flood, 250 g ai/ha; scale of 0 to 100 where 0 is no effect and 100 is complete control; 13 to 15 days
# Procedure, shortened: as §2
# [9] = test system: small-flower umbrella sedge (Cyperus difformis); assay: Test C flooded paddy test plant response; details: Flood, 250 g ai/ha; scale of 0 to 100 where 0 is no effect and 100 is complete control; 13 to 15 days
# Procedure, shortened: as §2
# [10] = test system: blackgrass (Alopecurus myosuroides); assay: Test B postemergence plant response
# Procedure, shortened: (§3)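 Plants grown in pots of loam soil–sand blend were sprayed postemergence with formulated test chemicals at 2 to 10 cm height, one- to two-leaf stage. After about 10 days in a greenhouse, injury was visually rated against untreated controls on a 0 to 100 scale (0 no effect, 100 complete control).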
# [11] = test system: galium (catchweed bedstraw, Galium aparine); assay: Test B postemergence plant response
# Procedure, shortened: as §3
# [12] = 125 g ai/ha, postemergence, 0 to 100 scale, 0 no effect, 100 complete control
# [13] = Postemergence, 500 g ai/ha, 0 to 100 scale (0 no effect, 100 complete control)
# [14] = Preemergence, 125 g ai/ha, 0 to 100 scale (0 no effect, 100 complete control)
# [15] = Preemergence, 500 g ai/ha, 0 to 100 scale where 0 is no effect and 100 is complete control
# [16] = 31 g ai/ha, Preemergence, 0 to 100 scale where 0 is no effect and 100 is complete control
# [17] = 31 g ai/ha, Postemergence, 0 to 100 scale, 0 no effect, 100 complete control
# [18] = Postemergence, 31 g ai/ha, 0 to 100 scale (0 no effect, 100 complete control)
Structure (SMILES),"Plant response rating, Ragweed [1, 12]","Ragweed plant response rating [1, 14]","Plant response rating, Pigweed [2, 12]","Pigweed plant response rating [2, 14]","Plant response rating, Kochia (kochia (Kochia scoparia); [12])",Kochia plant response rating (kochia (Kochia scoparia); [14]),"Plant response rating, Ryegrass, Italian [3, 12]","Ryegrass, Italian plant response rating [3, 14]","Plant response rating, Corn (corn (Zea mays); [12])","Plant response rating, Wheat [4, 12]","Plant response rating, Barnyardgrass [5, 12]","Barnyardgrass plant response rating [5, 14]","Plant response rating, Foxtail, Giant [6, 12]","Foxtail, Giant plant response rating [6, 14]",Rice plant response rating (rice (Oryza sativa)),Ducksalad plant response rating [7],Barnyardgrass plant response rating [8],"Sedge, Umbrella plant response rating [9]","Plant response rating, Blackgrass [10, 12]","Plant response rating, Galium [11, 12]",further results
FC(F)(F)c1csc(-c2ccccc2Oc2ncc(Br)cn2)n1 [Compound 139],0,0,0,0,0,0,0,0,0,0,0,0,0,0,20,30,0,0,0,0,"Plant response rating, Ragweed [1, 13]: 0; Plant response rating, Ragweed [1, 15]: 0; Plant response rating, Pigweed [2, 13]: 0; Plant response rating, Pigweed [2, 15]: 0; Plant response rating, Kochia (kochia (Kochia scoparia); [13]): 0; Plant response rating, Kochia (kochia (Kochia scoparia); [15]): 0; Plant response rating, Ryegrass, Italian [3, 13]: 0; Plant response rating, Ryegrass, Italian [3, 15]: 0; Plant response rating, Corn (corn (Zea mays); [13]): 0; Plant response rating, Wheat [4, 13]: 0; Plant response rating, Barnyardgrass [5, 13]: 0; Plant response rating, Barnyardgrass [5, 15]: 0; Plant response rating, Foxtail, Giant [6, 13]: 0; Plant response rating, Foxtail, Giant [6, 15]: 0; Plant response rating, Blackgrass [10, 13]: 0; Plant response rating, Galium [11, 13]: 0"
O=Cc1cc(-c2ccccc2Oc2ncc(Cl)cn2)co1 [Compound 140],0,0,0,0,0,0,0,0,0,0,0,0,0,0,0,0,0,0,0,0,"Plant response rating, Ragweed [1, 16]: 0; Plant response rating, Pigweed [2, 16]: 0; Plant response rating, Kochia (kochia (Kochia scoparia); [16]): 0; Plant response rating, Ryegrass, Italian [3, 16]: 0; Plant response rating, Corn (corn (Zea mays); [17]): 0; Plant response rating, Barnyardgrass [5, 17]: 0; Plant response rating, Barnyardgrass [5, 16]: 0; Plant response rating, Foxtail, Giant [6, 17]: 0; Plant response rating, Foxtail, Giant [6, 16]: 0; Plant response rating, Blackgrass [10, 17]: 0"
FC(F)c1cc(-c2ccccc2Oc2ncc(Cl)cn2)co1 [Compound 141],0,0,20,0,0,0,0,0,30,0,0,0,0,0,0,30,0,0,0,0,"Plant response rating, Ragweed [1, 16]: 0; Plant response rating, Pigweed [2, 16]: 0; Plant response rating, Kochia (kochia (Kochia scoparia); [16]): 0; Plant response rating, Ryegrass, Italian [3, 16]: 0; Plant response rating, Corn (corn (Zea mays); [17]): 0; Plant response rating, Barnyardgrass [5, 17]: 0; Plant response rating, Barnyardgrass [5, 16]: 0; Plant response rating, Foxtail, Giant [6, 17]: 0; Plant response rating, Foxtail, Giant [6, 16]: 0; Plant response rating, Blackgrass [10, 17]: 0"
FC(F)(F)C(F)(F)c1cc(-c2ccccc2Oc2ncc(Cl)cn2)no1 [Compound 142],0,0,20,0,20,0,0,0,20,0,0,0,0,20,0,0,0,0,0,10,"Plant response rating, Ragweed [1, 16]: 0; Plant response rating, Pigweed [2, 16]: 0; Plant response rating, Kochia (kochia (Kochia scoparia); [16]): 0; Plant response rating, Ryegrass, Italian [3, 16]: 0; Plant response rating, Corn (corn (Zea mays); [17]): 0; Plant response rating, Barnyardgrass [5, 17]: 0; Plant response rating, Barnyardgrass [5, 16]: 0; Plant response rating, Foxtail, Giant [6, 17]: 0; Plant response rating, Foxtail, Giant [6, 16]: 0; Plant response rating, Blackgrass [10, 17]: 0"
Cn1nc(-c2c(C#N)cccc2Oc2ncc(Cl)cn2)cc1C(F)(F)F [Compound 146],0,0,60,70,60,0,0,0,0,0,20,30,20,20,0,0,0,0,30,50,"Plant response rating, Ragweed [1, 16]: 0; Plant response rating, Ragweed [1, 18]: 0; Plant response rating, Pigweed [2, 16]: 0; Plant response rating, Pigweed [2, 18]: 30; Plant response rating, Kochia (kochia (Kochia scoparia); [16]): 0; Plant response rating, Kochia (kochia (Kochia scoparia); [18]): 50; Plant response rating, Ryegrass, Italian [3, 16]: 0; Plant response rating, Ryegrass, Italian [3, 18]: 0; Plant response rating, Corn (corn (Zea mays); [18]): 0; Plant response rating, Wheat [4, 18]: 0; Plant response rating, Barnyardgrass [5, 16]: 0; Plant response rating, Barnyardgrass [5, 18]: 0; Plant response rating, Foxtail, Giant [6, 16]: 0; Plant response rating, Foxtail, Giant [6, 18]: 0; Plant response rating, Blackgrass [10, 18]: 0; Plant response rating, Galium [11, 18]: 30"
